Results taken from publication PMC2939296 (Bioorganic & medicinal chemistry letters, 2010).
Each block holds one compound with its values, some of them ahead of it.

What was measured:
Human MIF = biological target: T1, Human MIF (Homo sapiens, UniProt P14174); settings: cited from earlier work
T1 sequence (P14174 2-115 limits assumed): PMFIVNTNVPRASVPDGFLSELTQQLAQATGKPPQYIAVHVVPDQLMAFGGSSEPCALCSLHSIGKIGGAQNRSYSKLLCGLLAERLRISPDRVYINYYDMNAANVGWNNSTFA

rh-MIF = biological target: T2, rh-MIF (Homo sapiens, UniProt P14174); assay: Mass spectrometry; settings: 30 μM rh-MIF plus 30 μM compound, 1 hr at room temperature in the dark
T2 sequence (P14174 2-115 limits assumed): T1 sequence (P14174 2-115 limits assumed)

MIF-CD74 = biological target: T3, MIF-CD74 (Homo sapiens, UniProt P14174); settings: cited from earlier work
T3 sequence (P14174 2-115 limits assumed): T1 sequence (P14174 2-115 limits assumed)

SMILES: Cc1ccc2oc(=O)n(Cc3ccccc3)c2c1 [Cp 1]
mode of inhibition of tautomerase activity (Michaelis-Menten analyses) (Human MIF): competitive inhibitor

SMILES: Ic1cc(-c2ccccc2)ncn1 [Cp 4-IPP, 4-iodo-6-phenylpyrimidine]
covalent adduct with MIF by mass spectrometry (rh-MIF): appearance of the covalent adduct at the mass of MIF + ca. 155 Da

covalent adduct with MIF by mass spectrometry (rh-MIF): no additional peaks emerged
SMILES: Cc1ccc2oc(=O)n(Cc3cccc(O)c3)c2c1 [Cp 5]

SMILES: CC(=O)N=C1C=CC(=O)C=C1 [NAPQI]
effect on MIF tautomerase activity (Human MIF): decreases | effect on MIF receptor binding activity (MIF-CD74): decreases
